Experimental data as given in patent publication US12139492B2 (Endotarget Inc., priority 2021, dated 2024).
Like-named read-outs stand apart in the source and are kept apart here.

Key:
Mino cells = experiment: Antiproliferative effect, MTS cell viability assay, Mino cells; assay type: cell-based; conditions: Homo sapiens, MINO, Mino mantle cell lymphoma cells; read-out: IC50 (anti-proliferation) Mino cells
Summary of the method: (§1)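 Cells were exposed to compound at 0, 0.001, 0.01, 0.1, 1 and 10 μM for 72 h. Viability was then measured by MTS assay, reading formazan produced by metabolically active cells as absorbance at 490 nm.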

JeKo-1 cells = experiment: Antiproliferative effect, MTS cell viability assay, JeKo-1 cells; assay type: cell-based; conditions: Homo sapiens; JeKo-1 mantle cell lymphoma cells; read-out: IC50 (anti-proliferation) JeKO-1 cells
Summary of the method: as §1

BTK = BTK (Homo sapiens, UniProt Q06187); experiment: Degradation of BTK protein in Namalwa cells (Western blot; DC50, Dmax); conditions: for DC50: cell line not given
[1] = read-out: DC50 (BTK degradation), concentration giving 50% reduction of BTK expression level
[2] = read-out: Dmax (BTK degradation)

BTK, sequence (Q06187 whole entry): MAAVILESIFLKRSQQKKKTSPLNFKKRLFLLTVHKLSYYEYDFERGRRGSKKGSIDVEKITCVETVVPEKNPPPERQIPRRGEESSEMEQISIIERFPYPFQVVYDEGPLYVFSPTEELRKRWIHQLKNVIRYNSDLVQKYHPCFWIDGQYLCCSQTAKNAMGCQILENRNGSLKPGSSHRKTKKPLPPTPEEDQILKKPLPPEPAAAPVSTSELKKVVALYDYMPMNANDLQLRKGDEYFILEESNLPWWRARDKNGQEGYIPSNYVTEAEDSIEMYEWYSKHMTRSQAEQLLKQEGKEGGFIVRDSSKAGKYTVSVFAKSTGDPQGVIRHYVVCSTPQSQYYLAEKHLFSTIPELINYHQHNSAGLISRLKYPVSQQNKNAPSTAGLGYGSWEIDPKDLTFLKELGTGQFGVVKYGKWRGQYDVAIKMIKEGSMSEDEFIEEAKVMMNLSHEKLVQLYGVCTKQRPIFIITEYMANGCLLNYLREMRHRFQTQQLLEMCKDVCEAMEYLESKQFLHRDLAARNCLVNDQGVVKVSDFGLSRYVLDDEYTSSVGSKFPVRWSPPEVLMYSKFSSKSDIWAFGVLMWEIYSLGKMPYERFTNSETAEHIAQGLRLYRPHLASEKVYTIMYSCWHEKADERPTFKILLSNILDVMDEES

Compound	DC50 (BTK; [1]) [nM]	Dmax (BTK; [2]) [%]	Dmax (BTK) [%]	DC50 (BTK; BTK degradation) [nM]	degradation of BTK protein (BTK; Namalwa B lymphocyte cells, various concentrations, 24 hours, Western blot)	IC50 (Mino cells) [nM]	IC50 (JeKo-1 cells) [nM]
Nc1ncnc2c1c(-c1ccc(Oc3ccccc3)cc1)nn2C1CCN(CC2CCN(CC3CCN(c4ccc5c(c4)oc(=O)n5C4CCC(=O)NC4=O)CC3)CC2)CC1 (stereo not drawn) [Compound 544, 3-(6-(4-((4-((4-(4-amino-3-(4-phenoxyphenyl)-1H-pyrazolo[3,4-d]pyrimidin-1-yl)piperidin-1-yl)methyl)piperidin-1-yl)methyl)piperidin-1-yl)-2-oxobenzo[d]oxazol-3(2H)-yl)piperidine-2,6-dione]	10 to 50	> 90	–	–	–	1000 to 10000	1000 to 10000
Nc1ncnc2c1c(-c1ccc(Oc3ccccc3)cc1)nn2C1CCN(CC2CCN(CC3CCN(c4ccc(NC5CCC(=O)NC5=O)cc4)CC3)C2)CC1 (stereo not drawn) [Compound 562, 3-((4-(4-((3-((4-(4-amino-3-(4-phenoxyphenyl)-1H-pyrazolo[3,4-d]pyrimidin-1-yl)piperidin-1-yl)methyl)pyrrolidin-1-yl)methyl)piperidin-1-yl)phenyl)amino)piperidine-2,6-dione]	10 to 50	> 90	–	–	–	1000 to 10000	1000 to 10000
Nc1ncnc2c1c(-c1ccc(Oc3ccccc3)cc1)nn2C1CCN(C(=O)NCCN2CCN(c3ccc4c(c3)CN(C3CCC(=O)NC3=O)C4=O)CC2)CC1 (stereo not drawn) [Compound 521, 4-(4-amino-3-(4-phenoxyphenyl)-1H-pyrazolo[3,4-d]pyrimidin-1-yl)-N-(2-(4-(2-(2,6-dioxopiperidin-3-yl)-1-oxoisoindolin-5-yl)piperazin-1-yl)ethyl)piperidine-1-carboxamide]	< 10	> 90	–	–	–	< 1000	< 1000
NC(=O)c1c(-c2ccc(Oc3ccccc3)cc2)nn2c1NCC[C@H]2C1CCN(C2CCN(CCC3CCN(c4ccc5c(c4)C(=O)N(C4CCC(=O)NC4=O)C5=O)CC3)CC2)CC1 (stereo partly drawn) [Compound 325]	–	–	> 90	10 to 50	–	1000 to 10000	1000 to 10000
Nc1ncnc2c1c(-c1ccc(Oc3ccccc3)cc1)nn2C1CCN(C2CCN(C(=O)N3CCC(CCN4CCN(c5ccc6c(c5)CN(C5CCC(=O)NC5=O)C6=O)CC4)CC3)CC2)CC1 (stereo not drawn) [Compound 252, 3-(5-(4-(2-(1-(4-(4-amino-3-(4-phenoxyphenyl)-1H-pyrazolo[3,4-d]pyrimidin-1-yl)-[1,4′-bipiperidine]-1′-carbonyl)piperidin-4-yl)ethyl)piperazin-1-yl)-1-oxoisoindolin-2-yl)piperidine-2,6-dione]	–	–	> 90	10 to 50	–	< 1000	< 1000
Nc1ncnc2c1c(-c1ccc(Oc3ccccc3)cc1)nn2C1CCN(C2CCN(CC3CCN(CC4CN(c5ccc6c(c5)CN(C5CCC(=O)NC5=O)C6=O)C4)CC3)CC2)CC1 (stereo not drawn) [Compound 436, 3-(5-(3-((4-((4-(4-amino-3-(4-phenoxyphenyl)-1H-pyrazolo[3,4-d]pyrimidin-1-yl)-[1,4′-bipiperidin]-1′-yl)methyl)piperidin-1-yl)methyl)azetidin-1-yl)-1-oxoisoindolin-2-yl)piperidine-2,6-dione]	< 10	> 90	–	–	–	< 1000	1000 to 10000
Nc1ncnc2c1c(-c1ccc(Oc3ccccc3)cc1)nn2C1CCN(CC2CCN(CCN3CCN(c4ccc5c(c4)C(=O)N(C4CCC(=O)NC4=O)C5=O)CC3)CC2)CC1 (stereo not drawn) [Compound 203, 5-(4-(2-(4-((4-(4-amino-3-(4-phenoxyphenyl)-1H-pyrazolo[3,4-d]pyrimidin-1-yl)piperidin-1-yl)methyl)piperidin-1-yl)ethyl)piperazin-1-yl)-2-(2,6-dioxopiperidin-3-yl)isoindoline-1,3-dione]	–	–	> 90	10 to 50	–	1000 to 10000	1000 to 10000
NC(=O)c1c(-c2ccc(Oc3ccccc3)cc2)nn2c1NCC[C@H]2C1CCN(CC2CCN(C(=O)N3CCC(CN4CCN(c5ccc6c(c5)C(=O)N(C5CCC(=O)NC5=O)C6=O)CC4)CC3)CC2)CC1 (stereo partly drawn) [Compound 409, (7S)-7-(1-((1-(4-((4-(2-(2,6-dioxopiperidin-3-yl)-1,3-dioxoisoindolin-5-yl)piperazin-1-yl)methyl)piperidine-1-carbonyl)piperidin-4-yl)methyl)piperidin-4-yl)-2-(4-phenoxyphenyl)-4,5,6,7-tetrahydropyrazolo[1,5-a]pyrimidine-3-carboxamide]	< 10	> 90	–	–	–	< 1000	1000 to 10000
Nc1ncnc2c1c(-c1ccc(Oc3ccccc3)cc1)nn2C1CCN(CCN2CCC(Sc3ccc4c(c3)CN(C3CCC(=O)NC3=O)C4=O)CC2)CC1 (stereo not drawn) [Compound 472, 3-(5-((1-(2-(4-(4-amino-3-(4-phenoxyphenyl)-1H-pyrazolo[3,4-d]pyrimidin-1-yl)piperidin-1-yl)ethyl)piperidin-4-yl)thio)-1-oxoisoindolin-2-yl)piperidine-2,6-dione]	10 to 50	> 75	–	–	–	1000 to 10000	1000 to 10000
Nc1ncnc2c1c(-c1ccc(Oc3ccccc3)cc1)nn2C1CCN(CC2CC(N3CCN(c4ccc5c(c4)C(=O)N(C4CCC(=O)NC4=O)C5=O)CC3)C2)CC1 (stereo not drawn) [Compound 530, 5-(4-(3-((4-(4-amino-3-(4-phenoxyphenyl)-1H-pyrazolo[3,4-d]pyrimidin-1-yl)piperidin-1-yl)methyl)cyclobutyl)piperazin-1-yl)-2-(2,6-dioxopiperidin-3-yl)isoindoline-1,3-dione]	< 10	> 90	–	–	–	< 1000	< 1000

Continued, in another order:

DC50 (BTK; [1]) [nM]	Dmax (BTK; [2]) [%]	Dmax (BTK) [%]	DC50 (BTK; BTK degradation) [nM]	degradation of BTK protein (BTK; Namalwa B lymphocyte cells, various concentrations, 24 hours, Western blot)	Compound	IC50 (Mino cells) [nM]	IC50 (JeKo-1 cells) [nM]
–	–	> 50	> 50	–	NC(=O)c1c(-c2ccc(Oc3ccccc3)cc2)nn2c1NCCC2C1CCN(C2CCN(C(=O)N3CCN(Cc4ccc5c(c4)CN(C4CCC(=O)NC4=O)C5=O)CC3)CC2)CC1 (stereo not drawn) [Compound 340, 7-(1′-(4-((2-(2,6-dioxopiperidin-3-yl)-1-oxoisoindolin-5-yl)methyl)piperazine-1-carbonyl)-[1,4′-bipiperidin]-4-yl)-2-(4-phenoxyphenyl)-4,5,6,7-tetrahydropyrazolo[1,5-a]pyrimidine-3-carboxamide]	> 10000	> 10000
10 to 50	> 90	–	–	–	NC(=O)c1c(-c2ccc(Oc3ccccc3)cc2)nn2c1NCC[C@H]2C1CCN(CC2CCN(C(=O)N3CCN(CC4CCN(c5ccc6c(c5)C(=O)N(C5CCC(=O)NC5=O)C6=O)CC4)CC3)CC2)CC1 (stereo partly drawn) [Compound 411, (7S)-7-(1-((1-(4-((1-(2-(2,6-dioxopiperidin-3-yl)-1,3-dioxoisoindolin-5-yl)piperidin-4-yl)methyl)piperazine-1-carbonyl)piperidin-4-yl)methyl)piperidin-4-yl)-2-(4-phenoxyphenyl)-4,5,6,7-tetrahydropyrazolo[1,5-a]pyrimidine-3-carboxamide]	< 1000	1000 to 10000
< 10	> 90	–	–	–	Nc1ncnc2c1c(-c1ccc(Oc3ccccc3)cc1)nn2C1CCC(CN2CC(N3CCN(c4ccc5c(c4)C(=O)N(C4CCC(=O)NC4=O)C5=O)CC3)C2)CC1 (stereo not drawn) [Compound 532, 5-(4-(1-((4-(4-amino-3-(4-phenoxyphenyl)-1H-pyrazolo[3,4-d]pyrimidin-1-yl)cyclohexyl)methyl)azetidin-3-yl)piperazin-1-yl)-2-(2,6-dioxopiperidin-3-yl)isoindoline-1,3-dione]	< 1000	< 1000
–	–	> 90	< 10	–	NC(=O)c1c(-c2ccc(Oc3ccccc3)cc2)nn2c1NCC[C@H]2C1CCN(C(=O)N2CCN(CC3CCN(c4ccc5c(c4)CN(C4CCC(=O)NC4=O)C5=O)CC3)CC2)CC1 (stereo partly drawn) [Compound 290, (7S)-7-(1-(4-((1-(2-(2,6-dioxopiperidin-3-yl)-1-oxoisoindolin 5-yl)piperidin-4-yl)methyl)piperazine-1-carbonyl)piperidin-4-yl)-2-(4-phenoxyphenyl)-4,5,6,7-tetrahydropyrazolo[1,5-a]pyrimidine-3-carboxamide]	1000 to 10000	< 1000
> 50	> 50	–	–	–	Nc1ncnc2c1c(-c1ccc(Oc3ccccc3)cc1)nn2C1CCN(CCN2CCC(N3CCN(c4ccc5c(c4)CN(C4CCC(=O)NC4=O)C5=O)CC3)CC2)CC1 (stereo not drawn) [Compound 458, 3-(5-(4-(1-(2-(4-(4-amino-3-(4-phenoxyphenyl)-1H-pyrazolo[3,4-d]pyrimidin-1-yl)piperidin-1-yl)ethyl)piperidin-4-yl)piperazin-1-yl)-1-oxoisoindolin-2-yl)piperidine-2,6-dione]	1000 to 10000	1000 to 10000
–	–	> 90	< 10	–	NC(=O)c1c(-c2ccc(Oc3ccccc3)cc2)nn2c1NCCC2C1CCN(CC2CCN(C(=O)N3CCN(C4CCN(c5ccc6c(c5)CN(C5CCC(=O)NC5=O)C6=O)CC4)CC3)CC2)CC1 (stereo not drawn) [Compound 362, 7-(1-((1-(4-(1-(2-(2,6-dioxopiperidin-3-yl)-1-oxoisoindolin-5-yl)piperidin-4-yl)piperazine-1-carbonyl)piperidin-4-yl)methyl)piperidin-4-yl)-2-(4-phenoxyphenyl)-4,5,6,7-tetrahydropyrazolo[1,5-a]pyrimidine-3-carboxamide]	1000 to 10000	1000 to 10000
10 to 50	> 90	–	–	dose-dependent degradation	Nc1ncnc2c1c(-c1ccc(Oc3ccccc3)cc1)nn2C1CCN(CC2CCN(CC3CN(c4ccc5c(c4)C(=O)N(C4CCC(=O)NC4=O)C5=O)C3)C2)CC1 (stereo not drawn) [Compound 423, 5-(3-((3-((4-(4-amino-3-(4-phenoxyphenyl)-1H-pyrazolo(3,4-d)pyrimidin-1-yl)piperidin-1-yl)methyl)pyrrolidin-1-yl)methyl)azetidin-1-yl)-2-(2,6-dioxopiperidin-3-yl)isoindoline-1,3-dione]	< 1000	1000 to 10000
